Measurements reported in patent US11083725B2 (priority 2014, dated 2021).

Test system: NHBE cells
Assay: Biolog metabolic array: substrate use by NHBE cells with or without CA09 infection
Type: cell-based, human
Conditions: for Substrate use, 590 nm absorbance normalized to zero hour, 0 hr: Biolog PMM2, 0 hr; for Substrate use, 590 nm absorbance normalized to zero hour, 1 hr: Biolog PMM2, 1 hr; for Substrate use, 590 nm absorbance normalized to zero hour, 7 hr: Biolog PMM2, 7 hr; for Substrate use, 590 nm absorbance normalized to zero hour, 5 hr: Biolog PMM2, 5 hr
[1] = Control (uninfected) NHBE cells
[2] = Virus (CA09-infected, MOI 1) NHBE cells
[3] = Virus: CA09-infected NHBE cells, MOI 1, Biolog PMM2

Row | Substance | 590 nm absorbance normalized to zero hour (substrate use), 0 hr [1] | 590 nm absorbance normalized to zero hour (substrate use), 1 hr [1] | 590 nm absorbance normalized to zero hour (substrate use), 4 hr [1] | 590 nm absorbance normalized to zero hour (substrate use), 6 hr [1] | 590 nm absorbance normalized to zero hour (substrate use), 8 hr [1] | 590 nm absorbance normalized to zero hour (substrate use), 9 hr [1] | 590 nm absorbance normalized to zero hour (substrate use), 10 hr [1] | 590 nm absorbance normalized to zero hour (substrate use), 11 hr [1] | Substrate use, 590 nm absorbance normalized to zero hour, 0 hr [1] | Substrate use, 590 nm absorbance normalized to zero hour, 1 hr [1] | Substrate use, 590 nm absorbance normalized to zero hour, 7 hr [1] | 590 nm absorbance normalized to zero hour (substrate use), 0 hr [2] | 590 nm absorbance normalized to zero hour (substrate use), 1 hr [2] | 590 nm absorbance normalized to zero hour (substrate use), 2 hr [2] | 590 nm absorbance normalized to zero hour (substrate use), 3 hr [2] | 590 nm absorbance normalized to zero hour (substrate use), 5 hr [2] | 590 nm absorbance normalized to zero hour (substrate use), 7 hr [2] | 590 nm absorbance normalized to zero hour (substrate use), 8 hr [2] | 590 nm absorbance normalized to zero hour (substrate use), 9 hr [2] | 590 nm absorbance normalized to zero hour (substrate use), 11 hr [2] | other results
1 | Glycogen | 1.00 | 1.61 | 2.80 | 4.32 | 4.85 | 4.87 | 4.50 | 5.01 | 1.00 | 1.61 | 4.20 | 1.00 | 1.68 | 2.26 | 2.71 | 3.70 | 4.74 | 5.48 | 3.99 | 4.63 | Substrate use, 590 nm absorbance normalized to zero hour, 3 hr (Control (uninfected) NHBE cells, Biolog PMM2, 3 hr): 2.58; 590 nm absorbance normalized to zero hour (substrate use), 4 hr [2]: 2.92; 590 nm absorbance normalized to zero hour (substrate use), 10 hr [2]: 4.33; 590 nm absorbance normalized to zero hour (substrate use), 0 hr [3]: 1.00; 590 nm absorbance normalized to zero hour (substrate use), 1 hr [3]: 1.68; 590 nm absorbance normalized to zero hour (substrate use), 2 hr [3]: 2.26; 590 nm absorbance normalized to zero hour (substrate use), 3 hr [3]: 2.71; 590 nm absorbance normalized to zero hour (substrate use), 4 hr [3]: 2.92; 590 nm absorbance normalized to zero hour (substrate use), 5 hr [3]: 3.70; 590 nm absorbance normalized to zero hour (substrate use), 7 hr [3]: 4.74; 590 nm absorbance normalized to zero hour (substrate use), 8 hr [3]: 5.48; 590 nm absorbance normalized to zero hour (substrate use), 9 hr [3]: 3.99; 590 nm absorbance normalized to zero hour (substrate use), 10 hr [3]: 4.33; 590 nm absorbance normalized to zero hour (substrate use), 11 hr [3]: 4.63
2 | Mannan | 1.00 | 1.03 | 1.06 | 1.80 | 1.08 | 1.09 | 1.11 | 1.27 | 1.00 | 1.03 | 1.15 | 1.00 | 1.03 | 1.25 | 1.28 | 1.41 | 1.49 | 1.49 | 1.61 | 1.76 | 590 nm absorbance normalized to zero hour (substrate use), 2 hr [1]: 0.89; 590 nm absorbance normalized to zero hour (substrate use), 3 hr [1]: 1.03; Substrate use, 590 nm absorbance normalized to zero hour, 5 hr [1]: 1.14; 590 nm absorbance normalized to zero hour (substrate use), 6 hr [2]: 1.44; 590 nm absorbance normalized to zero hour (substrate use), 0 hr [3]: 1.00; 590 nm absorbance normalized to zero hour (substrate use), 1 hr [3]: 1.03; 590 nm absorbance normalized to zero hour (substrate use), 2 hr [3]: 1.25; 590 nm absorbance normalized to zero hour (substrate use), 3 hr [3]: 1.28; 590 nm absorbance normalized to zero hour (substrate use), 5 hr [3]: 1.41; 590 nm absorbance normalized to zero hour (substrate use), 6 hr [3]: 1.44; 590 nm absorbance normalized to zero hour (substrate use), 7 hr [3]: 1.49; 590 nm absorbance normalized to zero hour (substrate use), 8 hr [3]: 1.49; 590 nm absorbance normalized to zero hour (substrate use), 9 hr [3]: 1.61; 590 nm absorbance normalized to zero hour (substrate use), 11 hr [3]: 1.76
3 | Pectin | 1.00 | 3.40 | 1.72 | 2.65 | 0.95 | 1.44 | 1.37 | 0.91 | 1.00 | 3.40 | 1.44 | 1.00 | 3.25 | 2.85 | 0.75 | 0.91 | 1.00 | 1.05 | 1.15 | 1.27 | 590 nm absorbance normalized to zero hour (substrate use), 2 hr [1]: 1.82; 590 nm absorbance normalized to zero hour (substrate use), 3 hr [1]: 1.76; Substrate use, 590 nm absorbance normalized to zero hour, 5 hr [1]: 1.45; 590 nm absorbance normalized to zero hour (substrate use), 4 hr [2]: 0.80; 590 nm absorbance normalized to zero hour (substrate use), 6 hr [2]: 0.95; 590 nm absorbance normalized to zero hour (substrate use), 10 hr [2]: 1.17; 590 nm absorbance normalized to zero hour (substrate use), 0 hr [3]: 1.00; 590 nm absorbance normalized to zero hour (substrate use), 1 hr [3]: 3.25; 590 nm absorbance normalized to zero hour (substrate use), 2 hr [3]: 2.85; 590 nm absorbance normalized to zero hour (substrate use), 3 hr [3]: 0.75; 590 nm absorbance normalized to zero hour (substrate use), 4 hr [3]: 0.80; 590 nm absorbance normalized to zero hour (substrate use), 5 hr [3]: 0.91; 590 nm absorbance normalized to zero hour (substrate use), 6 hr [3]: 0.95; 590 nm absorbance normalized to zero hour (substrate use), 7 hr [3]: 1.00; 590 nm absorbance normalized to zero hour (substrate use), 8 hr [3]: 1.05; 590 nm absorbance normalized to zero hour (substrate use), 9 hr [3]: 1.15; 590 nm absorbance normalized to zero hour (substrate use), 10 hr [3]: 1.17; 590 nm absorbance normalized to zero hour (substrate use), 11 hr [3]: 1.27
